Results published in ChEMBL document CHEMBL2202954, “The effect of PLC-γ2 inhibitors on the growth of human tumour cells” (2012).

Key:
Type in all cases: functional
MDA-MB-468 = experiment: Cytotoxicity against human MDA-MB-468 cells assessed as cellular growth at 10 uM by SRB assay
T47D = experiment: Cytotoxicity against human T47D cells assessed as cellular growth at 10 uM by SRB assay
BT-549 = experiment: Cytotoxicity against human BT549 cells assessed as cellular growth at 10 uM by SRB assay
Hs-578T = experiment: Cytotoxicity against human Hs578T cells assessed as cellular growth at 10 uM by SRB assay
MDA-MB-231 = experiment: Cytotoxicity against human MDA-MB-231 cells assessed as cellular growth at 10 uM by SRB assay
MCF7 = experiment: Cytotoxicity against human MCF7 cells assessed as cellular growth at 10 uM by SRB assay
DU-145 = experiment: Cytotoxicity against human DU145 cells assessed as cellular growth at 10 uM by SRB assay
UO-31 = experiment: Cytotoxicity against human UO31 cells assessed as cellular growth at 10 uM by SRB assay
PC-3 = experiment: Cytotoxicity against human PC3 cells assessed as cellular growth at 10 uM by SRB assay
TK-10 = experiment: Cytotoxicity against human TK10 cells assessed as cellular growth at 10 uM by SRB assay
SN12C = experiment: Cytotoxicity against human SN12C cells assessed as cellular growth at 10 uM by SRB assay
RXF 393 = experiment: Cytotoxicity against human RXF393 cells assessed as cellular growth at 10 uM by SRB assay
ACHN = experiment: Cytotoxicity against human ACHN cells assessed as cellular growth at 10 uM by SRB assay
CAKI-1 = experiment: Cytotoxicity against human Caki1 cells assessed as cellular growth at 10 uM by SRB assay
A498 = experiment: Cytotoxicity against human A498 cells assessed as cellular growth at 10 uM by SRB assay
786-0 = experiment: Cytotoxicity against human 786-0 cells assessed as cellular growth at 10 uM by SRB assay
SK-OV-3 = experiment: Cytotoxicity against human SKOV3 cells assessed as cellular growth at 10 uM by SRB assay
[1] = Cytotoxicity against human NCI-ADR-RES cells assessed as cellular growth at 10 uM by SRB assay
OVCAR-8 = experiment: Cytotoxicity against human OVCAR8 cells assessed as cellular growth at 10 uM by SRB assay
OVCAR-3 = experiment: Cytotoxicity against human OVCAR3 cells assessed as cellular growth at 10 uM by SRB assay
IGROV-1 = experiment: Cytotoxicity against human IGROV1 cells assessed as cellular growth at 10 uM by SRB assay
UACC-62 = experiment: Cytotoxicity against human UACC62 cells assessed as cellular growth at 10 uM by SRB assay
UACC-257 = experiment: Cytotoxicity against human UACC257 cells assessed as cellular growth at 10 uM by SRB assay
SK-MEL-5 = experiment: Cytotoxicity against human SK-MEL-5 cells assessed as cellular growth at 10 uM by SRB assay
SK-MEL-28 = experiment: Cytotoxicity against human SK-MEL-28 cells assessed as cellular growth at 10 uM by SRB assay
SK-MEL-2 = experiment: Cytotoxicity against human SK-MEL-2 cells assessed as cellular growth at 10 uM by SRB assay
MDA-MB-435 = experiment: Cytotoxicity against human MDA-MB-435 cells assessed as cellular growth at 10 uM by SRB assay
M14 = experiment: Cytotoxicity against human M14 cells assessed as cellular growth at 10 uM by SRB assay
Malme-3M = experiment: Cytotoxicity against human MALME-3M cells assessed as cellular growth at 10 uM by SRB assay
LOX IMVI = experiment: Cytotoxicity against human LOXIMVI cells assessed as cellular growth at 10 uM by SRB assay
U-251 = experiment: Cytotoxicity against human U251 cells assessed as cellular growth at 10 uM by SRB assay
SNB-75 = experiment: Cytotoxicity against human SNB75 cells assessed as cellular growth at 10 uM by SRB assay
SNB-19 = experiment: Cytotoxicity against human SNB19 cells assessed as cellular growth at 10 uM by SRB assay
SF-539 = experiment: Cytotoxicity against human SF539 cells assessed as cellular growth at 10 uM by SRB assay
SF-295 = experiment: Cytotoxicity against human SF295 cells assessed as cellular growth at 10 uM by SRB assay
SF-268 = experiment: Cytotoxicity against human SF268 cells assessed as cellular growth at 10 uM by SRB assay
SW-620 = experiment: Cytotoxicity against human SW620 cells assessed as cellular growth at 10 uM by SRB assay
KM12 = experiment: Cytotoxicity against human KM12 cells assessed as cellular growth at 10 uM by SRB assay
HT-29 = experiment: Cytotoxicity against human HT-29 cells assessed as cellular growth at 10 uM by SRB assay
HCT-15 = experiment: Cytotoxicity against human HCT15 cells assessed as cellular growth at 10 uM by SRB assay
HCT-116 = experiment: Cytotoxicity against human HCT116 cells assessed as cellular growth at 10 uM by SRB assay
HCC 2998 = experiment: Cytotoxicity against human HCC2998 cells assessed as cellular growth at 10 uM by SRB assay
NCI-H522 = experiment: Cytotoxicity against human NCI-H522 cells assessed as cellular growth at 10 uM by SRB assay
COLO 205 = experiment: Cytotoxicity against human COLO205 cells assessed as cellular growth at 10 uM by SRB assay
NCI-H460 = experiment: Cytotoxicity against human NCI-H460 cells assessed as cellular growth at 10 uM by SRB assay
NCI-H322M = experiment: Cytotoxicity against human NCI-H322M cells assessed as cellular growth at 10 uM by SRB assay
NCI-H226 = experiment: Cytotoxicity against human NCI-H226 cells assessed as cellular growth at 10 uM by SRB assay
NCI-H23 = experiment: Cytotoxicity against human NCI-H23 cells assessed as cellular growth at 10 uM by SRB assay
HOP-92 = experiment: Cytotoxicity against human HOP92 cells assessed as cellular growth at 10 uM by SRB assay
EKVX = experiment: Cytotoxicity against human EKVX cells assessed as cellular growth at 10 uM by SRB assay
HOP-62 = experiment: Cytotoxicity against human HOP62 cells assessed as cellular growth at 10 uM by SRB assay
A549 = experiment: Cytotoxicity against human A549 cells assessed as cellular growth at 10 uM by SRB assay
MOLT-4 = experiment: Cytotoxicity against human MOLT4 cells assessed as cellular growth at 10 uM by SRB assay
RPMI-8226 = experiment: Cytotoxicity against human RPMI8226 cells assessed as cellular growth at 10 uM by SRB assay
K562 = experiment: Cytotoxicity against human K562 cells assessed as cellular growth at 10 uM by SRB assay
CCRF-CEM = experiment: Cytotoxicity against human CCRF-CEM cells assessed as cellular growth at 10 uM by SRB assay
OVCAR-4 = experiment: Cytotoxicity against human OVCAR4 cells assessed as cellular growth at 10 uM by SRB assay
OVCAR-5 = experiment: Cytotoxicity against human OVCAR5 cells assessed as cellular growth at 10 uM by SRB assay
HL-60(TB) = experiment: Cytotoxicity against human HL-60(TB) cells assessed as cellular growth at 10 uM by SRB assay

## Oc1ccccc1-c1nc(-c2cccs2)no1
MDA-MB-468
  Activity: 44.64%
T47D
  Activity: 76.43%
BT-549
  Activity: 92.36%
Hs-578T
  Activity: 93.55%
MDA-MB-231
  Activity: 71.74%
MCF7
  Activity: 56.48%
DU-145
  Activity: 114.11%
UO-31
  Activity: 71.94%
PC-3
  Activity: 85.02%
TK-10
  Activity: 89.67%
SN12C
  Activity: 90.61%
RXF 393
  Activity: 117.42%
ACHN
  Activity: 98.95%
CAKI-1
  Activity: 97.52%
A498
  Activity: 105.68%
786-0
  Activity: 101.07%
SK-OV-3
  Activity: 99.86%
[1]
  Activity: 106.13%
OVCAR-8
  Activity: 102.43%
OVCAR-3
  Activity: 108.33%
IGROV-1
  Activity: 86.9%
UACC-62
  Activity: 89.11%
UACC-257
  Activity: 96.64%
SK-MEL-5
  Activity: 88.2%
SK-MEL-28
  Activity: 115.6%
SK-MEL-2
  Activity: 107.16%
MDA-MB-435
  Activity: 112.76%
M14
  Activity: 106.76%
Malme-3M
  Activity: 105.64%
LOX IMVI
  Activity: 100.28%
U-251
  Activity: 89.74%
SNB-75
  Activity: 90.2%
SNB-19
  Activity: 102.55%
SF-539
  Activity: 104.64%
SF-295
  Activity: 109.56%
SF-268
  Activity: 112.74%
SW-620
  Activity: 95.69%
KM12
  Activity: 100.01%
HT-29
  Activity: 111.27%
HCT-15
  Activity: 64.4%
HCT-116
  Activity: 104.63%
HCC 2998
  Activity: 83.27%
NCI-H522
  Activity: 96.76%
COLO 205
  Activity: 111.09%
NCI-H460
  Activity: 95.65%
NCI-H322M
  Activity: 116.66%
NCI-H226
  Activity: 93.28%
NCI-H23
  Activity: 94.82%
HOP-92
  Activity: 50.86%
EKVX
  Activity: 89.29%
HOP-62
  Activity: 88.78%
A549
  Activity: 99.05%
MOLT-4
  Activity: 99.05%
RPMI-8226
  Activity: 87.52%
K562
  Activity: 96.52%
CCRF-CEM
  Activity: 91.77%

## Cc1ccc(NC(=O)c2sc3nc4c(cc3c2N)C(=O)CCC4)c(Br)c1
MDA-MB-468
  Activity: 106.56%
T47D
  Activity: 89.73%
BT-549
  Activity: 113.85%
Hs-578T
  Activity: 100.84%
MDA-MB-231
  Activity: 118.27%
MCF7
  Activity: 96.02%
DU-145
  Activity: 108.79%
UO-31
  Activity: 94.06%
PC-3
  Activity: 102.4%
TK-10
  Activity: 131.53%
SN12C
  Activity: 94.31%
RXF 393
  Activity: 118.46%
ACHN
  Activity: 107.36%
CAKI-1
  Activity: 94.2%
A498
  Activity: 83.73%
786-0
  Activity: 107.4%
SK-OV-3
  Activity: 92.59%
[1]
  Activity: 102.67%
OVCAR-8
  Activity: 98.57%
OVCAR-4
  Activity: 105.66%
OVCAR-5
  Activity: 105.13%
OVCAR-3
  Activity: 101.82%
IGROV-1
  Activity: 112.76%
UACC-62
  Activity: 95.44%
UACC-257
  Activity: 96.22%
SK-MEL-5
  Activity: 92.03%
SK-MEL-28
  Activity: 107.72%
MDA-MB-435
  Activity: 94.29%
M14
  Activity: 105.12%
Malme-3M
  Activity: 95.81%
LOX IMVI
  Activity: 102.77%
U-251
  Activity: 94.7%
SNB-75
  Activity: 107.29%
SNB-19
  Activity: 100.23%
SF-539
  Activity: 108.91%
SF-295
  Activity: 91.32%
SF-268
  Activity: 100.61%
SW-620
  Activity: 97.41%
KM12
  Activity: 97.82%
HT-29
  Activity: 107.12%
HCT-15
  Activity: 103.46%
HCT-116
  Activity: 106.38%
HCC 2998
  Activity: 102.39%
NCI-H522
  Activity: 103.96%
COLO 205
  Activity: 113.39%
NCI-H460
  Activity: 101.57%
NCI-H322M
  Activity: 103.11%
NCI-H226
  Activity: 99.85%
NCI-H23
  Activity: 102.24%
HOP-92
  Activity: 107.03%
EKVX
  Activity: 89.55%
HOP-62
  Activity: 95.12%
A549
  Activity: 92.09%
MOLT-4
  Activity: 103.27%
RPMI-8226
  Activity: 109.86%
K562
  Activity: 104.86%
HL-60(TB)
  Activity: 111.67%
CCRF-CEM
  Activity: 103.07%
